From patent US7169789B2 (Kirin Beer Kabushiki Kaisha, priority 1999, dated 2007) come the findings set out here.

One assay concerns the target T1, human KDR (Homo sapiens, UniProt P35968).
T1 construct: expressed in transfected cells; host or cells: NIH 3T3 cells (Sawano A et al., Cell Growth & Differentiation 7, 213-221 (1996))
The assay can be described thus: Inhibitory activity against KDR phosphorylation by ELISA. It counts as cell-based. The conditions noted are these: NIH 3T3 cells transfected with human KDR, VEGF 100 ng/ml. On the procedure:
Measurement of Inhibitory Activity Against KDR Phosphorylation by ELISA
NIH 3T3 cells (Sawano A et al., Cell Growth & Differentation, 7, 213–221 (1996), “Flt-1 but not KDR/Flk-1 tyrosine kinase is a receptor for placenta growth factor, which is related to vascular endothelial growth factor”) prepared by transfection of human KDR were cultured in a DMEM medium containing 10% fetal calf serum (purchased from GIBCO BRL) within a 5% carbon dioxide incubator until 50 to 70% confluent. The harvested cells were inoculated into wells, containing the same medium, in a collagen-type one-coat 96-well flat-bottom plate in an amount of 1.5×10^4 per well, followed by cultivation at 37° C. overnight. The medium was then replaced by a DMEM medium containing 0.1% fetal calf serum. A solution of the test compound in dimethyl sulfoxide was added to each well, and the cultivation was continued at 37° C. for additional one hr. A human recombinant vascular endothelial growth factor (hereinafter abbreviated to “VEGF”) was added to a final concentration of 100 ng/ml, and the stimulation of cells was carried out at 37° C. for 2 min. The medium was removed, the cells were washed with phosphate buffered saline (pH 7.4), and 50 μl of a solubilization buffer (20 mM HEPES (pH 7.4), 150 mM NaCl, 0.2% Triton X-100, 10% glycerol, 5 mM sodium orthovanadylate, 5 mM disodium ethylenediaminetetraacetate, and 2 mM Na4P2O7) was then added thereto. The mixture was shaken at 4° C. for 2 hr to prepare a cell extract.
Separately, phosphate buffered saline (50 μl, pH 7.4) containing […] of anti-phospho-tyrosine antibody (PY20; purchased from Transduction Laboratories) was added to a microplate for ELISA (Maxisorp; purchased from NUNC), followed by standing at 4° C. overnight to form a solid phase on the wells. After washing of the plate, 300 μl of a blocking solution was added, followed by standing at room temperature for 2 hr to perform blocking. After washing, the whole quantity of the cell extract was transferred to the wells, and the plate was then allowed to stand at 4° C. overnight. After washing, an anti-KDR antibody (purchased from Santa Cruz) was allowed to react at room temperature for one hr, and, after washing, a peroxidase-labeled anti-rabbit Ig antibody (purchased from Amersham) was allowed to react at room temperature for one hr. After washing, a chromophoric substrate for peroxidase (purchased from Sumitomo Bakelite Co., Ltd.) was added thereto to initiate a reaction. After a suitable level of color development, a reaction termination solution was added to stop the reaction, and the absorbance at 450 nm was measured with a microplate reader. The KDR phosphorylation activity for each well was determined by presuming the absorbance with the addition of VEGF and without the addition of the medicament to be 100% KDR phosphorylation activity and the absorbance without the medicament and VEGF to be 0% KDR phosphorylation activity. The concentration of the test compound was varied on several levels, the inhibition (%) of KDR phosphorylation was determined for each case, and the concentration of the test compound necessary for inhibiting 50% of KDR phosphorylation (IC50) was calculated.

A further assay has as its system Human glioma cells GL07. Kind of assay: Antitumor effect on human glioma cells (GL07) transplanted into nude mice. Format: in vivo. The settings on record: GL07, oral, 20 mg/kg once a day for 9 days; for inhibition in vivo at 20 mg/kg: Mus musculus, Glioma cell, 216 h, read-out: TGIR, % (tumor growth inhibition rate). On the procedure:
Antitumor Effect on Human Glioma Cells (GL07)
Human glioma cells GL07 (obtained from Central Laboratories for Experimental Animals) were transplanted into nude mice. When the tumor volume became about 100 mm^3, the mice were grouped. In this case, grouping was carried out so that each group consisted of four mice and the average tumor volume was even among the groups. The test compound was orally or intraperitoneally administered at a dose of 20 mg/kg to the test groups every day once a day for 9 days, while the medium was administered to the control group in the manner as in the test groups. The tumor growth inhibition rate (TGIR) was calculated as follows: The tumor growth inhibition rate (TGIR)=(1−Tx/Cx)×100 wherein Cx represents the volume of tumor at day x for the control group when the tumor volume at the day of the start of the administration was presumed to be 1; and Tx represents the volume of tumor for test compound administration groups.

T1 sequence (P35968 20-1356): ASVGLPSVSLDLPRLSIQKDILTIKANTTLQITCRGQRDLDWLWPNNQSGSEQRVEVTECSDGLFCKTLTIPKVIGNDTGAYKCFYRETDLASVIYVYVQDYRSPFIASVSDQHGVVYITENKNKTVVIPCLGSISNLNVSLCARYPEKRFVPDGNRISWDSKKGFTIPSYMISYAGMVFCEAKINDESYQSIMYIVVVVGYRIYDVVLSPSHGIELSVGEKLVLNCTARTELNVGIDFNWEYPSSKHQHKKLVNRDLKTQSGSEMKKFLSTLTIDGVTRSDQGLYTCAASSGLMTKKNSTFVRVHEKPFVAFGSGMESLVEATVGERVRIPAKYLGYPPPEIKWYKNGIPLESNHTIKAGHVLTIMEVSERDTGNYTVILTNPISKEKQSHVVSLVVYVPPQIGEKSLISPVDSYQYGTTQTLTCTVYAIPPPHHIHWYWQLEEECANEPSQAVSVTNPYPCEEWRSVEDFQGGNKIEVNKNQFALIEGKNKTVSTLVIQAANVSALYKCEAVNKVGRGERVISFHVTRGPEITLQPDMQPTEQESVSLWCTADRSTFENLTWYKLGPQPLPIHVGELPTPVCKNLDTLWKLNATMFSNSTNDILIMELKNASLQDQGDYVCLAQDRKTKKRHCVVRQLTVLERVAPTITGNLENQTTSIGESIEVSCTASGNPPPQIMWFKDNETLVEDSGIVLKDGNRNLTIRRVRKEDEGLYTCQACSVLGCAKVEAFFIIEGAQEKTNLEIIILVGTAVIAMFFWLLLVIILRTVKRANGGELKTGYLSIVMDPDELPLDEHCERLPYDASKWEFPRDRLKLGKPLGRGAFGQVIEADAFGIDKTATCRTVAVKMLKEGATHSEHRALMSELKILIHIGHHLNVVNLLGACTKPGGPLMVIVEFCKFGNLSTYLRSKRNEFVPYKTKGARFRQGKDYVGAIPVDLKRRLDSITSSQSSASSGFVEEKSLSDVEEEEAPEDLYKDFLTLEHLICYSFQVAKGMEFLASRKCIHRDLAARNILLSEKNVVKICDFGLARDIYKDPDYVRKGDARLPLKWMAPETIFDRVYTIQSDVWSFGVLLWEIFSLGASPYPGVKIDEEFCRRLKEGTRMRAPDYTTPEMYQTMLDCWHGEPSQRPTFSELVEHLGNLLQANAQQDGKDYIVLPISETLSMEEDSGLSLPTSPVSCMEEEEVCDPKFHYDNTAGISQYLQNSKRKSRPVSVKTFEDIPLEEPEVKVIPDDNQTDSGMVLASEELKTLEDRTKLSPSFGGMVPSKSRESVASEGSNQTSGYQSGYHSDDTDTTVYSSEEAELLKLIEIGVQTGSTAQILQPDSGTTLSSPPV

In general, IC50 refers to the concentration at which inhibition is half-maximal. `COc1cc2c(Oc3ccc(NC(=O)Nc4ccc(F)cc4F)c(Cl)c3)ccnc2cc1OCCN1CCN(C)CC1` [Example 166, N-[2-Chloro-4-({6-methoxy-7-[2-(4-methylpiperazino)ethoxy]-4-guinolyl}oxy)phenyl]-N′-(2,4-difluorophenyl)urea] displayed an IC50 on human KDR of 2.2 nM. Moreover, in the assay with Human glioma cells GL07, the inhibition in vivo at 20 mg/kg is 27%.

In turn, `CCCNC(=O)Nc1ccc(Oc2ccnc3cc(OCCCn4ccnc4)c(OC)cc23)cc1Cl` [Example 154, N-[2-Chloro-4-({7-[3-(1H-1-imidazolyl)-propoxy]-6-methoxy-4-guinolyl}oxy)phenyl]-N′-propylurea] had a concentration for half-maximal inhibition (IC50) on human KDR of 1.5 nM. Moreover, the inhibition in vivo at 20 mg/kg in the assay with Human glioma cells GL07 amounted to 34%.

For `CCCNC(=O)Nc1ccc(Oc2ccnc3cc(OCCCO)c(OC)cc23)cc1Cl` [Example 147, N-(2-Chloro-4-{[7-(3-hydroxypropoxy)-6-methoxy-4-guinolyl]oxy}phenyl)-N′-propylurea], the IC50 against human KDR is 1 nM. For the same compound, the inhibition in vivo at 20 mg/kg with Human glioma cells GL07 worked out at 34%.

For the compound `CCCNC(=O)Nc1ccc(Oc2ncnc3cc(OCCN(C)CCO)c(OC)cc23)cc1Cl` [Example 129, N-{2-Chloro-4-[(7-{2-[(2-hydroxyethyl)-(methyl)amino]ethoxy}-6-methoxy-4-quinazolinyl)oxy]-phenyl}-N′-propylurea], in the assay with Human glioma cells GL07, the inhibition in vivo at 20 mg/kg is 25%.

`CCCN(C)C(=O)Nc1ccc(Oc2ncnc3cc(OC)c(OC)cc23)cc1Cl` [Example 111, N′-{2-Chloro-4-[(6,7-dimethoxy-4-quinazolinyl)oxy]phenyl}-N-methyl-N-propyurea] gave a half-inhibitory concentration (IC50) against human KDR above 1000 nM. In the assay on Human glioma cells GL07, the inhibition in vivo at 20 mg/kg was found to be 78%.

Regarding `CCCNC(=O)Nc1ccc(Oc2ncnc3cc(OCCCN4CCN(C)CC4)c(OC)cc23)cc1Cl` [Example 130, N-[2-Chloro-4-({6-methoxy-7-[3-(4-methylpiperazino)propoxy]-4-quinazolinyl}oxy)phenyl]-N′-propylurea], the inhibition in vivo at 20 mg/kg with Human glioma cells GL07 is 32%.

Take `CCCNC(=O)Nc1ccc(Oc2ncnc3cc(OCCCCCn4ccnn4)c(OC)cc23)cc1Cl` [Example 125, N-{2-chloro-4-[(6-methoxy-7-{[5-(1H-1,2,3-triazol-1-yl)pentyl]oxy}-4-quinazolinyl)oxy]phenyl}-N′-propylurea]: the concentration for half-maximal inhibition (IC50) on human KDR came out at 2.6 nM. For the same compound, the inhibition in vivo at 20 mg/kg in the assay on Human glioma cells GL07 is 30%.

`CCNC(=O)Nc1cc(C)c(Oc2ccnc3cc(OCCN4CCOCC4)c(OC)cc23)cc1C` [Example 175, N-Ethyl-N′-(4-{[6-methoxy-7-(2-morpholinoethoxy)-4-guinolyl]oxy}-2,5-dimethylphenyl)urea]: on human KDR, inhibition was half-maximal at 4.7 nM (IC50). Further, in the assay on Human glioma cells GL07, the inhibition in vivo at 20 mg/kg is 17%.

`CCCNC(=O)Nc1ccc(Oc2ccnc3cc(OCCN4CCOCC4)c(OC)cc23)cc1Cl` [Example 144, N-(2-chloro-4-{[6-methoxy-7-(2-morpholinoethoxy)-4-quinolyl]oxy}phenyl)-N′-propylurea] came in with a concentration for half-maximal inhibition (IC50) on human KDR of 1.6 nM. The inhibition in vivo at 20 mg/kg in the assay with Human glioma cells GL07 was determined as 56%.

As for `COc1cc2c(Oc3ccc(NC(=O)Nc4ccc(F)cc4F)c(Cl)c3)ccnc2cc1OCc1cccnc1` [Example 169, N-(2-chloro-4-{[6-methoxy-7-(3-pyridylmethoxy)-4-quinolyl]oxy}phenyl)-N′-(2,4-difluorophenyl)urea], at human KDR, the IC50 was 3.7 nM. In addition, the inhibition in vivo at 20 mg/kg in the assay with Human glioma cells GL07 was 55%.

`COc1cc2c(Oc3ccc(NC(=O)Nc4ccc(F)cc4F)c(Cl)c3)ncnc2cc1OCCCN(C)CCO` [Example 165, N-{2-chloro-4-[(7-{3-[(2-hydroxyethyl)-(methyl)amino]propoxy}-6-methoxy-4-quinazolinyl)oxy]-phenyl}-N′-(2,4-difluorophenyl)urea] returned an IC50 against human KDR of 0.6 nM. Moreover, the inhibition in vivo at 20 mg/kg in the assay with Human glioma cells GL07 came out at 44%.

In turn, `CCN(CC)C(=O)Nc1ccc(Oc2ncnc3cc(OCc4ccncc4)c(OC)cc23)cc1Cl` [Example 126, N′-(2-Chloro-4-{[6-methoxy-7-(4-pyridylmethoxy)-4-quinazolinyl]oxy}phenyl)-N,N-diethyl-urea] displayed an IC50 on human KDR above 1000 nM. Besides, the inhibition in vivo at 20 mg/kg in the assay on Human glioma cells GL07 was 52%.

`CCCNC(=O)Nc1ccc(Oc2ncnc3cc(OCCCN4CCOCC4)c(OC)cc23)cc1OC` [Example 171, N-(2-Methoxy-4-{[6-methoxy-7-(3-morpholinopropoxy)-4-quinazolinyl]oxy}phenyl)-N′-propylurea]: the inhibition in vivo at 20 mg/kg in the assay with Human glioma cells GL07 turned out to be 13%.

`CCCNC(=O)N(COC)c1ccc(Oc2ncnc3cc(OC)c(OC)cc23)cc1Cl` [Example 109, N-{2-Chloro-4-[(6,7-dimethoxy-4-quinazolinyl)oxy]phenyl}-N-methoxymethyl-N′-propylurea]: the inhibition in vivo at 20 mg/kg with Human glioma cells GL07 came out at 71%.

`C#CCNC(=O)Nc1ccc(Oc2ncnc3cc(OC)c(OC)cc23)cc1Cl` [Example 81, N-{2-Chloro-4-[(6,7-dimethoxy-4-quinazolinyl)oxy]phenyl}-N′-(2-propynyl)urea]: the 50% inhibitory concentration (IC50) on human KDR is 4.1 nM.

`CCCNC(=O)Nc1ccc(Oc2ncnc3cc(OC)c(OC)cc23)cc1F` [Example 88, N-{4-[(6,7-Dimethoxy-4-quinazolinyl)oxy]-2-fluorophenyl}-N′-propylurea]: the IC50 on human KDR amounted to 61 nM.

In the case of `CCCNC(=O)Nc1ccc(Oc2ccnc3cc(OCCCN4CCOCC4)c(OC)cc23)cc1OC` [Example 173, N-(2-Methoxy-4-{[6-methoxy-7-(3-morpholinopropoxy)-4-quinolyl]oxy}phenyl)-N′-propylurea], the inhibition in vivo at 20 mg/kg with Human glioma cells GL07 is 21%.

The compound `CCCCNC(=O)Nc1ccc(Oc2ncnc3cc(OC)c(OC)cc23)cc1[N+](=O)[O-]` [Example 108, N-Butyl-N′-{4-[(6,7-dimethoxy-4-quinazolinyl)oxy]-2-nitrophenyl}urea] displayed an IC50 against human KDR of 5 nM.

Regarding `COc1cc(Oc2ncnc3cc(OCCCN4CCOCC4)c(OC)cc23)ccc1NC(=O)Nc1ccc(F)cc1F` [Example 172, N-(2,4-Difluorophenyl)-N′-(2-methoxy-4-{[6-methoxy-7-(3-morpholinopropoxy)-4-quinazolinyl]oxy}-phenyl)urea], in the assay with Human glioma cells GL07, the inhibition in vivo at 20 mg/kg stood at 42%.

The compound `COc1cc2ncnc(Oc3ccc(NC(=O)N(C)C)c(Cl)c3)c2cc1OC` [Example 118, N′-{2-Chloro-4-[(6,7-dimethoxy-4-quinazolinyl)oxy]phenyl}-N,N-dimethylurea] yielded an IC50 against human KDR above 1000 nM.

In the case of `COc1cc2c(Oc3ccc(NC(=O)Nc4ccc(F)cc4F)c(Cl)c3)ccnc2cc1OCCN1CCOCC1` [Example 51, N-(2-chloro-4-{[6-methoxy-7-(2-morpholinoethoxy)-4-quinolyl]oxy}phenyl)-N′-(2,4-difluorophenyl)urea], the inhibition in vivo at 20 mg/kg with Human glioma cells GL07 turned out to be 65%.

`CCCNC(=O)Nc1ccc(Oc2ccnc3cc(OCc4ccncc4)c(OC)cc23)cc1OC` [Example 174, N-(2-Methoxy-4-{[6-methoxy-7-(4-pyridylmethoxy)-4-guinolyl]oxy}phenyl)-N′-propylurea]: the “TGIR, % (tumor growth inhibition rate)” value with Human glioma cells GL07 is 19%.

`CNC(=O)Nc1ccc(Oc2ncnc3cc(OC)c(OC)cc23)cc1Cl` [Example 117, N-{2-chloro-4-[(6,7-dimethoxy-4-quinazolinyl)oxy]phenyl}-N′-methylurea] showed an IC50 at human KDR of 24 nM.

`CCCNC(=O)Nc1ccc(Oc2ncnc3cc(OCCN4CCN(C)CC4)c(OC)cc23)cc1Cl` [Example 128, N-[2-Chloro-4-({6-methoxy-7-[2-(4-methylpiperazino)ethoxy]-4-quinazolinyl}oxy)phenyl]-N′-propylurea]: the inhibition in vivo at 20 mg/kg in the assay with Human glioma cells GL07 was 21%.
